Among the data in patent publication US20240228482A1, “COMPOUNDS, COMPOSITIONS AND METHODS OF TREATING CANCER” (HOTSPOT THERAPEUTICS, INC., priority 2021, published 2024) are IC50 values, retold here.

The assay has as its target T1, CBL-B (Homo sapiens, UniProt Q13191).
T1 construct: GST
Put plainly: CBL-B TR-FRET IC50 screening (E1/E2 ubiquitination, Biotin-Ubiquitin, Anti GST-Tb donor / Streptavidin-d2 acceptor). Type of assay: biochemical. To be noted: second part of Table 2 (head 'Patent Cmpd No / Updated Activity'); same CBL-B TR-FRET IC50 bins A-F; read-out: Updated Activity. On the technique in general: In TR-FRET formats the signal depends on donor and acceptor labels being close together.

T1 sequence (Q13191 whole entry): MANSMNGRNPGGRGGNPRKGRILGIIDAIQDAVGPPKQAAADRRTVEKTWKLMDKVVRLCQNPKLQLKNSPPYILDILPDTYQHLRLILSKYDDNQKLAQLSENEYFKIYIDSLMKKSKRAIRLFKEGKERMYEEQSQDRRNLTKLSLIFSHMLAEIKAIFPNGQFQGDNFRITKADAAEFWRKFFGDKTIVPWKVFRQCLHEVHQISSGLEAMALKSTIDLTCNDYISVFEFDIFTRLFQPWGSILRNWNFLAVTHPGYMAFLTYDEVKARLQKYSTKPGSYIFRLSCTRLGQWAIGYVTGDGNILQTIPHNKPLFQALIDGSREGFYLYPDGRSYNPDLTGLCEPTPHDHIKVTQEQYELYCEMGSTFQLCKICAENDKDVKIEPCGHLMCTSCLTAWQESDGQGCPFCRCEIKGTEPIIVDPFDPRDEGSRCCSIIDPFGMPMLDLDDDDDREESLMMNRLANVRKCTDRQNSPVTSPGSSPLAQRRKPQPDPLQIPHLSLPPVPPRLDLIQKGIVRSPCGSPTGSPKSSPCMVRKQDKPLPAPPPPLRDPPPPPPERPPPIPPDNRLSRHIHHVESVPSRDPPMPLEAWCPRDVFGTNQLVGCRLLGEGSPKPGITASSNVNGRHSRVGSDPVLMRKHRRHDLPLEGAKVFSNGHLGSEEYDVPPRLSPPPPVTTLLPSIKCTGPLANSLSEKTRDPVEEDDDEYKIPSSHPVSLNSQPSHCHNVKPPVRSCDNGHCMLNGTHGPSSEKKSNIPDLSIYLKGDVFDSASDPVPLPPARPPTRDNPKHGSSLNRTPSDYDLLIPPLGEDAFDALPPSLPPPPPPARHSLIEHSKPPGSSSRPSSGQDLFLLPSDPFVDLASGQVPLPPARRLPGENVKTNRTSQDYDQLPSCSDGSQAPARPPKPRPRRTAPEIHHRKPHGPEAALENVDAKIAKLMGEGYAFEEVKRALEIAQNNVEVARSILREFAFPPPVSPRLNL

Regarding `C[C@H]1CCCN(Cc2cc(C(F)(F)F)c3cn(-c4cccc([C@@H](c5nncn5C)[C@H]5C[C@H](O)C5)c4)c(=O)n3c2)C1` (single isomer, unassigned) [Compound 438], the IC50 is < 0.1 µM. The value for `CO[C@]1(C)C[C@](c2cccc(-n3cc4c(C(F)(F)F)cc(CN5CCC[C@H](C)C5)cn4c3=O)c2)(c2nncn2C)C1` (single isomer, unassigned) [Compound 439] was 0.1 to 0.3 µM. Turning to `CO[C@]1(C)C[C@@](c2cccc(-n3cc4c(C(F)(F)F)cc(CN5CCC[C@H](C)C5)cn4c3=O)c2)(c2nncn2C)C1` (single isomer, unassigned) [Compound 440], the IC50 is > 10 µM. `Cn1cnnc1[C@H](c1cc(-c2ccncn2)cc(-n2cc3c(C(F)(F)F)cccn3c2=O)c1)C1CCC1` (single isomer, unassigned) [Compound 441]: the IC50 was > 10 µM. Next, `Cn1cnnc1[C@@H](c1cc(-c2ccncn2)cc(-n2cc3c(C(F)(F)F)cccn3c2=O)c1)C1CCC1` (single isomer, unassigned) [Compound 442]: > 10 µM; `Cn1cnnc1[C@H](c1cc(-c2ccnnc2)cc(-n2cc3c(C(F)(F)F)cccn3c2=O)c1)C1CCC1` (single isomer, unassigned) [Compound 443]: > 10 µM; `Cn1cnnc1[C@H](c1cc(-c2ccncc2)cc(-n2cc3c(C(F)(F)F)cccn3c2=O)c1)C1CCC1` (single isomer, unassigned) [Compound 445]: > 10 µM. Next, `Cn1cnnc1[C@@H](c1cc(-c2ccncc2)cc(-n2cc3c(C(F)(F)F)cccn3c2=O)c1)C1CCC1` (single isomer, unassigned) [Compound 446]: > 10 µM. For `Cn1cnnc1[C@H](c1cc(-c2cncnc2)cc(-n2cc3c(C(F)(F)F)cccn3c2=O)c1)C1CCC1` (single isomer, unassigned) [Compound 447], the IC50 is > 10 µM.

Take `Cn1cnnc1[C@@H](c1cc(-c2cncnc2)cc(-n2cc3c(C(F)(F)F)cccn3c2=O)c1)C1CCC1` (single isomer, unassigned) [Compound 448]: the IC50 was > 10 µM.

For `Cn1cnnc1[C@H](c1cc(C#N)cc(-n2cc3c(C(F)(F)F)cccn3c2=O)c1)C1CCC1` (single isomer, unassigned) [Compound 452], the IC50 is > 10 µM. `Cn1cnnc1[C@@H](c1cc(C#N)cc(-n2cc3c(C(F)(F)F)cccn3c2=O)c1)C1CCC1` (single isomer, unassigned) [Compound 453]: the IC50 was in the range of 0.301 to 1 µM. Next, `Cn1cnnc1[C@H](c1cc(-c2cnoc2)cc(-n2cc3c(C(F)(F)F)cccn3c2=O)c1)C1CCC1` (single isomer, unassigned) [Compound 454]: 1 to 3 µM; `Cn1cnnc1[C@@H](c1cc(-c2cnoc2)cc(-n2cc3c(C(F)(F)F)cccn3c2=O)c1)C1CCC1` (single isomer, unassigned) [Compound 455]: > 10 µM; `Cn1cnnc1[C@H](c1cc(-c2cnsc2)cc(-n2cc3c(C(F)(F)F)cccn3c2=O)c1)C1CCC1` (single isomer, unassigned) [Compound 456]: > 10 µM. Next, `Cn1cnnc1[C@@H](c1cc(-c2cnsc2)cc(-n2cc3c(C(F)(F)F)cccn3c2=O)c1)C1CCC1` (single isomer, unassigned) [Compound 457]: > 10 µM; `Cn1cnnc1[C@H](c1cc(-c2ccns2)cc(-n2cc3c(C(F)(F)F)cccn3c2=O)c1)C1CCC1` (single isomer, unassigned) [Compound 458]: 3 to 10 µM; `Cn1cnnc1[C@@H](c1cc(-c2ccns2)cc(-n2cc3c(C(F)(F)F)cccn3c2=O)c1)C1CCC1` (single isomer, unassigned) [Compound 459]: > 10 µM. Next, `Cn1cnnc1[C@H](c1cc(-c2ccsn2)cc(-n2cc3c(C(F)(F)F)cccn3c2=O)c1)C1CCC1` (single isomer, unassigned) [Compound 460]: > 10 µM. As to `Cn1cnnc1[C@@H](c1cc(-c2ccsn2)cc(-n2cc3c(C(F)(F)F)cccn3c2=O)c1)C1CCC1` (single isomer, unassigned) [Compound 461], the IC50 is > 10 µM. The value for `C[C@H]1CCCN(Cc2cc(C(F)(F)F)c3cn(-c4cccc([C@H](c5nncn5C(F)F)C5CCC5)c4)c(=O)n3c2)C1` (single isomer, unassigned) [Compound 462] was > 10 µM.

As for `C[C@H]1CCCN(Cc2cc(C(F)(F)F)c3cn(-c4cccc([C@@H](c5nncn5C(F)F)C5CCC5)c4)c(=O)n3c2)C1` (single isomer, unassigned) [Compound 463], the IC50 is > 10 µM.

For `C[C@@H]1CN(Cc2cc(C(F)(F)F)c3cn(-c4cccc(C5(c6nncn6C)CC6(CC6)C5)c4)c(=O)n3c2)CCC1(F)F` (single isomer, unassigned) [Compound 464], the IC50 was < 0.1 µM. The value for `C[C@H]1CN(Cc2cc(C(F)(F)F)c3cn(-c4cccc(C5(c6nncn6C)CC6(CC6)C5)c4)c(=O)n3c2)CCC1(F)F` (single isomer, unassigned) [Compound 465] was < 0.1 µM; that for `C[C@H]1CCCN(Cc2cc(C(F)(F)F)c3cn(-c4cccc([C@H](c5nncn5C)C5(O)CCC5)c4)c(=O)n3c2)C1` (single isomer, unassigned) [Compound 474] was < 0.1 µM; that for `C[C@H]1CCCN(Cc2cc(C(F)(F)F)c3cn(-c4cccc([C@@H](c5nncn5C)C5(O)CCC5)c4)c(=O)n3c2)C1` (single isomer, unassigned) [Compound 475] was 3 to 10 µM. In the case of `C[C@H]1CCCN(Cc2cc(C(F)(F)F)c3cn(-c4cc(F)cc([C@H](c5nncn5C)C5COC5)c4)c(=O)n3c2)C1` (single isomer, unassigned) [Compound 476], the IC50 is 0.301 to 1 µM. With `C[C@H]1CCCN(Cc2cc(C(F)(F)F)c3cn(-c4cc(F)cc([C@@H](c5nncn5C)C5COC5)c4)c(=O)n3c2)C1` (single isomer, unassigned) [Compound 477], the IC50 was < 0.1 µM. The value for `CC(=O)NCc1cc([C@@H](c2nncn2C)C2CCC2)cc(-n2cc3c(C(F)(F)F)cccn3c2=O)c1` (single isomer, unassigned) [Compound 478] was > 10 µM. Next, `CC(=O)NCc1cc([C@H](c2nncn2C)C2CCC2)cc(-n2cc3c(C(F)(F)F)cccn3c2=O)c1` (single isomer, unassigned) [Compound 479]: 3 to 10 µM; `Cn1cnnc1C1(c2cccc(-n3cc4c(C(F)(F)F)cc(CN5CCC[C@H](C(F)(F)F)C5)cn4c3=O)c2)CC2(CC2)C1` (single isomer, unassigned) [Compound 480]: < 0.1 µM. The value for `Cn1cnnc1C1(c2cccc(-n3cc4c(C(F)(F)F)cc(CN5CCC[C@@H](C(F)(F)F)C5)cn4c3=O)c2)CC2(CC2)C1` (single isomer, unassigned) [Compound 481] was < 0.1 µM. As to `C[C@H](c1cc(C(F)(F)F)c2cn(-c3cccc([C@H](c4nncn4C)C4CCC4)c3)c(=O)n2c1)N1CC[C@H](F)C1` (single isomer, unassigned) [Compound 485], the IC50 is < 0.1 µM. The value for `C[C@@H](c1cc(C(F)(F)F)c2cn(-c3cccc([C@H](c4nncn4C)C4CCC4)c3)c(=O)n2c1)N1CC[C@H](F)C1` (single isomer, unassigned) [Compound 486] was < 0.1 µM. The value for `COC[C@H]1C[C@@H]([C@@H](c2cccc(-n3cc4c(C(F)(F)F)cc(CN5CCC[C@H](C)C5)cn4c3=O)c2)c2nncn2C)C1` (single isomer, unassigned) [Compound 492] was > 10 µM; that for `COC[C@H]1C[C@H]([C@H](c2cccc(-n3cc4c(C(F)(F)F)cc(CN5CCC[C@H](C)C5)cn4c3=O)c2)c2nncn2C)C1` (single isomer, unassigned) [Compound 493] was > 10 µM; that for `COC[C@H]1C[C@H]([C@@H](c2cccc(-n3cc4c(C(F)(F)F)cc(CN5CCC[C@H](C)C5)cn4c3=O)c2)c2nncn2C)C1` (single isomer, unassigned) [Compound 494] was < 0.1 µM. The value for `COC[C@H]1C[C@@H]([C@H](c2cccc(-n3cc4c(C(F)(F)F)cc(CN5CCC[C@H](C)C5)cn4c3=O)c2)c2nncn2C)C1` (single isomer, unassigned) [Compound 495] was 0.1 to 0.3 µM. As to `Cn1cnnc1[C@@H](c1cc(C#N)cc(-n2cc3c(C(F)(F)F)cc(CN4CCC5(CC5)C4)cn3c2=O)c1)C1CCC1` (single isomer, unassigned) [Compound 496], the IC50 was > 10 µM.

In the case of `Cn1cnnc1[C@H](c1cc(C#N)cc(-n2cc3c(C(F)(F)F)cc(CN4CCC5(CC5)C4)cn3c2=O)c1)C1CCC1` (single isomer, unassigned) [Compound 497], the IC50 was < 0.1 µM. Next, `C[C@H](c1cc(C(F)(F)F)c2cn(-c3cccc([C@H](c4nncn4C)C4CCC4)c3)c(=O)n2c1)N1CC[C@@H](F)C1` (single isomer, unassigned) [Compound 500]: < 0.1 µM. Next, `C[C@@H](c1cc(C(F)(F)F)c2cn(-c3cccc([C@H](c4nncn4C)C4CCC4)c3)c(=O)n2c1)N1CC[C@@H](F)C1` (single isomer, unassigned) [Compound 501]: < 0.1 µM; `Cn1cnnc1[C@@H](c1cc(C#N)cc(-n2cc3c(C(F)(F)F)cc(CN4CCC(C)(F)CC4)cn3c2=O)c1)C1CCC1` (single isomer, unassigned) [Compound 508]: < 0.1 µM; `C[C@@H]1CN(Cc2cc(C(F)(F)F)c3cn(-c4cc(C#N)cc([C@H](c5nncn5C)C5CCC5)c4)c(=O)n3c2)CCO1` (single isomer, unassigned) [Compound 509]: < 0.1 µM.

As for `Cn1cnnc1[C@@H](c1cc(F)cc(-n2cc3c(C(F)(F)F)cc(CN4CCC5(CC5)C4)cn3c2=O)c1)C1CCC1` (single isomer, unassigned) [Compound 510], the IC50 was 0.301 to 1 µM. Next, `C[C@@H]1CN(Cc2cc(C(F)(F)F)c3cn(-c4cc(F)cc([C@H](c5nncn5C)C5CCC5)c4)c(=O)n3c2)CCO1` (single isomer, unassigned) [Compound 511]: > 10 µM.
